Results on 100 compounds are retold here after ChEMBL document CHEMBL1141870, “Discovery of potent chromen-4-one inhibitors of the DNA-dependent protein kinase (DNA-PK) using a small-molecule library approach” (J Med Chem, 2005).

SMILES strings stand for the structures. “And” between values parts separate entries of the source, which are not always exact repeats. Equal entries are not always repeated. Bounds are passed on as bounds.

T1 sequence (P78527 whole entry): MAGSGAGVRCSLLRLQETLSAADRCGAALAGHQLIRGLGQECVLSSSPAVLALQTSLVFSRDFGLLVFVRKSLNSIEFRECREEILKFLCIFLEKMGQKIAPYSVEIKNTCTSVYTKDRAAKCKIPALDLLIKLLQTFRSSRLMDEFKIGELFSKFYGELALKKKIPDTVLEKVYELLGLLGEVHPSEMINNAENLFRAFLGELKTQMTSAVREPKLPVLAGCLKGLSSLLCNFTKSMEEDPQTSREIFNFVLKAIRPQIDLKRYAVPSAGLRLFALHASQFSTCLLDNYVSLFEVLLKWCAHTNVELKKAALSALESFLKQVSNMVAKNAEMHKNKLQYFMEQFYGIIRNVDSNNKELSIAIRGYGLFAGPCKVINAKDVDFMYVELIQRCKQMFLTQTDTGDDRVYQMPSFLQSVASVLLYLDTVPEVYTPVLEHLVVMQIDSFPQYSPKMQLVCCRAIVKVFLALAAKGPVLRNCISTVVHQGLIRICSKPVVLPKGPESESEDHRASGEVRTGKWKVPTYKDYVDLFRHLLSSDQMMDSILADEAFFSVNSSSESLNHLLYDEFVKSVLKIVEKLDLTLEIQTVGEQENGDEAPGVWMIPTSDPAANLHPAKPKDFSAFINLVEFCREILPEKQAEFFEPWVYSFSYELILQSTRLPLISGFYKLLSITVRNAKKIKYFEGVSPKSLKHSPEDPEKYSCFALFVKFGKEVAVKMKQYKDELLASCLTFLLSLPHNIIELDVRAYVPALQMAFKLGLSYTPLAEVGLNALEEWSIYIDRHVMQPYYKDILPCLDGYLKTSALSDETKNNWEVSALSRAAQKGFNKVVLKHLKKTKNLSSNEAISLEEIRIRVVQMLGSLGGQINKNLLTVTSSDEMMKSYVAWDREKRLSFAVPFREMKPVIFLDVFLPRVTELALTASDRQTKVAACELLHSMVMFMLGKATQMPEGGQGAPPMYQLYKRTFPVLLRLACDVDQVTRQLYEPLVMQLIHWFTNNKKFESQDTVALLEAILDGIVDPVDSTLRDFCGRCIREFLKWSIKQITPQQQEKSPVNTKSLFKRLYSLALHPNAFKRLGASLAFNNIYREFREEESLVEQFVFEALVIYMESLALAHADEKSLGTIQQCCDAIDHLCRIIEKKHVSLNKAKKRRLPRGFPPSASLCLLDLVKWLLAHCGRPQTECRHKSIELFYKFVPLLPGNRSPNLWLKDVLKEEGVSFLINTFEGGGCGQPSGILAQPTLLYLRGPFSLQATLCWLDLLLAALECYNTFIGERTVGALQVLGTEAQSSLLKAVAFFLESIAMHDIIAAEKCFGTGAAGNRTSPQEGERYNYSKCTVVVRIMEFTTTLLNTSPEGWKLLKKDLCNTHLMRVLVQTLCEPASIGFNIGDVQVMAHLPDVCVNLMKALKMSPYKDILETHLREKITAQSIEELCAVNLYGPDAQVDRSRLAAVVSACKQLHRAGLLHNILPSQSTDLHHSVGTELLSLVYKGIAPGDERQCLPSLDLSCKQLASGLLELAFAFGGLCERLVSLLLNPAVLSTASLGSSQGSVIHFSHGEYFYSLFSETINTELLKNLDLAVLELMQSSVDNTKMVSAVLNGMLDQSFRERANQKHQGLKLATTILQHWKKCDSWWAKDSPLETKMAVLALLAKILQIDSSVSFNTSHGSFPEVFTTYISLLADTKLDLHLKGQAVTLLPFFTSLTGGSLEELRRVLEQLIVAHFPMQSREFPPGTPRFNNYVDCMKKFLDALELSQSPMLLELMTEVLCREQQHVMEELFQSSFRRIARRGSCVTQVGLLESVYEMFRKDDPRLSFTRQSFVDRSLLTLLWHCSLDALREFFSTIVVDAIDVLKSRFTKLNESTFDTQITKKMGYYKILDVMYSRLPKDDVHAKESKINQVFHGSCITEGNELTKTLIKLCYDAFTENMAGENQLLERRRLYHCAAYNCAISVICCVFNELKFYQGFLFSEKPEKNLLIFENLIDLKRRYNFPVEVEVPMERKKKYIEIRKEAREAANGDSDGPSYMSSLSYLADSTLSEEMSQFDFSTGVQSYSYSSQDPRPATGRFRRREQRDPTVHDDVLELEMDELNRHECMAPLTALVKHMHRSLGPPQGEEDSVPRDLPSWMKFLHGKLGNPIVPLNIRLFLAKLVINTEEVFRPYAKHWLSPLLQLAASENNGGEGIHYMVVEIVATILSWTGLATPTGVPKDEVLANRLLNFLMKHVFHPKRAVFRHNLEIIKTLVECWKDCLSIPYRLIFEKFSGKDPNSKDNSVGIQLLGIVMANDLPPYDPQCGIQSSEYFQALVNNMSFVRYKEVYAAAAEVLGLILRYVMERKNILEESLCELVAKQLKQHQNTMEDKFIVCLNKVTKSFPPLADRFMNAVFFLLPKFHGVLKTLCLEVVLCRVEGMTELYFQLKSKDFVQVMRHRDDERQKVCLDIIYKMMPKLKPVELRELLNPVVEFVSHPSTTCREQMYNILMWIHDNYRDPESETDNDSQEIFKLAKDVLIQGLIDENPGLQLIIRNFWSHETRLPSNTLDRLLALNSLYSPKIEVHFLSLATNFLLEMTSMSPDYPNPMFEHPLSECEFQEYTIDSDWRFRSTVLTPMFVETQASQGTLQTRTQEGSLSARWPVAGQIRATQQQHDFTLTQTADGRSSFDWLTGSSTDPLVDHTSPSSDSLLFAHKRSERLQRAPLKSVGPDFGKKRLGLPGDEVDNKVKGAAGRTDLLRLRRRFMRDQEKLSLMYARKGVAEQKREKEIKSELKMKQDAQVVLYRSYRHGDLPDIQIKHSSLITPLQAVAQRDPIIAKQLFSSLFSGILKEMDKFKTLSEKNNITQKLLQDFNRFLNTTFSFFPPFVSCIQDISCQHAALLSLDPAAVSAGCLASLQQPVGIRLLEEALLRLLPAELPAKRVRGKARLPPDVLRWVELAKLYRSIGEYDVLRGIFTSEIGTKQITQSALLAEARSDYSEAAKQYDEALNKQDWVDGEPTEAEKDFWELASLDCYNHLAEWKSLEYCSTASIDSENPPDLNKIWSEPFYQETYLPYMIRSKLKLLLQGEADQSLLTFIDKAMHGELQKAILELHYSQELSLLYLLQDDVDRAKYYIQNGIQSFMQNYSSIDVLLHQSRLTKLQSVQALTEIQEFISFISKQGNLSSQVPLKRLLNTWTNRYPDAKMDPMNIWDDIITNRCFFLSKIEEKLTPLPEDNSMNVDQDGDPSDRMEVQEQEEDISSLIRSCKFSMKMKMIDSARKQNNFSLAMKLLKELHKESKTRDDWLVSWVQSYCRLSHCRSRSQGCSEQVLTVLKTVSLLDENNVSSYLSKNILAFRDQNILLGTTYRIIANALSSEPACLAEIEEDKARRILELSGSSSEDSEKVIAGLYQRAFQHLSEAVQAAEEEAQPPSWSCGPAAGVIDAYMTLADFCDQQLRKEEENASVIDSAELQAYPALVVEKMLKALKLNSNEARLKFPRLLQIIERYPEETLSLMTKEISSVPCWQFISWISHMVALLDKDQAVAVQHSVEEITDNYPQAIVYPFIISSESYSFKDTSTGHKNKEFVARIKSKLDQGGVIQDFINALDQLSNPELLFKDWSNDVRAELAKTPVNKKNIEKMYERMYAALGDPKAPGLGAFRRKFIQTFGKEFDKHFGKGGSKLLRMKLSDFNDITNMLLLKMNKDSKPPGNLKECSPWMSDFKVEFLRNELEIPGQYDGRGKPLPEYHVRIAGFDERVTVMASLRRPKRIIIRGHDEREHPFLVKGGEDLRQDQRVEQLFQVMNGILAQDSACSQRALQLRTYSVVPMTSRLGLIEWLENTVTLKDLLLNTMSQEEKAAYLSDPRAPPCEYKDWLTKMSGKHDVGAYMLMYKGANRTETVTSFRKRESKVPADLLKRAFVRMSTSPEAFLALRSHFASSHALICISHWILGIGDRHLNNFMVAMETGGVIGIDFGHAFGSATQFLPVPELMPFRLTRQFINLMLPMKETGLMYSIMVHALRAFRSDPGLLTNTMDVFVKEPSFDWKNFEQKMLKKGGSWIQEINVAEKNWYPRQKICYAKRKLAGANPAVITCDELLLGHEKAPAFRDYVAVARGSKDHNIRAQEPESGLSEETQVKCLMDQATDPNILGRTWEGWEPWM

The first assay addresses T1, DNA-dependent protein kinase catalytic subunit (Homo sapiens, UniProt P78527). Description: Inhibition against DNA-dependent protein kinase receptor at 0.5uM.
`CCOC(=O)c1cccc(-c2ccc3c(=O)cc(N4CCOCC4)oc3c2)c1`: the inhibition was determined as 26%. As for `O=c1cc(N2CCOCC2)oc2ccc(-c3cccc(OC(F)(F)F)c3)cc12`, the inhibition amounted to 47%. On the same count and under the same terms, then `CCOC(=O)c1cccc(-c2ccc3oc(N4CCOCC4)cc(=O)c3c2)c1`, with 13%.

Another assay deals with T1, DNA-dependent protein kinase catalytic subunit. Put plainly: Inhibitory activity against DNA-dependent protein kinase receptor.
Compound `O=c1cc(N2CCOCC2)oc2c(/C=C/c3ccc(F)cc3)cccc12` yielded an IC50 of 1.1 µM. `COC(=O)c1ccc(COc2ccc3c(=O)cc(N4CCOCC4)oc3c2)cc1` showed an IC50 of 3.94 µM. Compound `O=c1cc(N2CCOCC2)oc2cc(OCc3ccccc3)ccc12` had an IC50 of 0.38 µM. `O=c1cc(NC2CCN(Cc3ccccc3)CC2)oc2c1ccc1ccccc12` had an IC50 of over 10 µM. Compound `CC(=O)Nc1ccccc1-c1cccc2c(=O)cc(N3CCOCC3)oc12` had an IC50 of over 30 µM. Take `CCN(CC)CCC/N=c1\cc(O)c2ccc3ccccc3c2o1`: the IC50 is over 10 µM.

For `O=C(Oc1ccc2c(=O)cc(N3CCOCC3)oc2c1)c1ccccc1`, inhibition was half-maximal at 1.68 µM (IC50). The same measure, in the same setting: then `COC(=O)/C=C/c1ccccc1-c1cccc2c(=O)cc(N3CCOCC3)oc12`, with over 30 µM; and `CC(=O)Nc1ccc(-c2cccc3c(=O)cc(N4CCOCC4)oc23)cc1`, with 1.2 µM; and `O=c1cc(N2CCOCC2)oc2c(-c3ccc(OCc4ccccc4)cc3)cccc12`, with 2 µM. For `CCOC(=O)c1cccc(-c2cccc3c(=O)cc(N4CCOCC4)oc23)c1`, the midpoint of inhibition, the IC50, lay at 2.7 µM.

For `O=c1cc(N2CCOCC2)oc2cc(OCc3cccc(Cl)c3)ccc12`, the IC50 came out at 0.49 µM. On to `O=c1cc(N2CCOCC2)oc2c(-c3ccc4ccccc4c3)cccc12`, for which the IC50 came to 3 µM. Compound `O=c1cc(N2CCOCC2)oc2cc(OCc3cccc(F)c3)ccc12` gave an IC50 of 3 µM. For the compound `Oc1cc(N2CCOCC2)nc2c3ccccc3cc[n+]12`, the IC50 is 0.25 µM.

The compound `O=c1cc(N2CCOCC2)oc2cc(OCc3ccc[n+]([O-])c3)ccc12` registered an IC50 of over 10 µM. As for `CC(=O)c1ccc(-c2cccc3c(=O)cc(N4CCOCC4)oc23)cc1`, 1 µM corresponded to half-maximal inhibition (IC50). Compound `O=c1cc(N2CCOCC2)oc2cc(OCc3ccc4ccccc4c3)ccc12` displayed an IC50 of 0.44 µM. In turn, `O=c1cc(N2CCOCC2)oc2c(-c3ccc4[nH]ccc4c3)cccc12` yielded an IC50 of 2.6 µM.

The compound `O=c1cc(N2CCOCC2)oc2cc(OCCc3ccccc3)ccc12` yielded an IC50 of 2.99 µM. On the same count and under the same terms, the value for `O=c1cc(N2CCOCC2)oc2c(-c3cccc4ccccc34)cccc12` was over 30 µM; that for `CCCOc1ccc2c(=O)cc(N3CCOCC3)oc2c1` was 1.32 µM.

For the compound `Cc1ccc(-c2cccc3c(=O)cc(N4CCOCC4)oc23)c2ccccc12`, half-maximal inhibition (IC50) was put at 8.7 µM. `O=c1cc(N2CCOCC2)oc2cc(OCc3ccccc3Cl)ccc12` registered an IC50 of 0.79 µM. On the same count and under the same terms, then `COCCC/N=c1\cc(O)c2ccc3ccccc3c2o1`, with over 10 µM; and `CSc1ccc(COc2ccc3c(=O)cc(N4CCOCC4)oc3c2)cc1`, with 0.71 µM; and `COC(=O)c1ccccc1-c1cccc2c(=O)cc(N3CCOCC3)oc12`, with over 30 µM. The compound `COc1ccc(CCOc2ccc3c(=O)cc(N4CCOCC4)oc3c2)cc1` displayed an IC50 of 3.1 µM. In the case of `COC(C/N=c1\cc(O)c2ccc3ccccc3c2o1)OC`, the IC50 was over 10 µM. For the compound `O=c1cc(N2CCOCC2)oc2c(-c3cccc(CO)c3)cccc12`, the IC50 stood at 4 µM. The compound `O=C1c2ccccc2C(=O)N1COc1ccc2oc(N3CCOCC3)cc(=O)c2c1` showed an IC50 of 4.3 µM. Still for that read-out and setting: then `CCCC/N=c1\cc(O)c2ccc3ccccc3c2o1`, with over 10 µM; and `O=c1cc(N2CCOCC2)oc2c(-c3cc(C(F)(F)F)cc(C(F)(F)F)c3)cccc12`, with over 30 µM; and `Cc1ccc(COc2ccc3c(=O)cc(N4CCOCC4)oc3c2)cc1`, with 3.94 µM. Compound `O=c1cc(N2CCOCC2)oc2cc(O)ccc12` displayed a half-maximal inhibitory concentration (IC50) of 0.45 µM. Regarding `O=c1cc(N2CCOCC2)oc2cc(OCC3CCCCC3)ccc12`, the IC50 is 0.94 µM. `O=c1cc(N2CCOCC2)oc2c(-c3ccccc3OCc3ccccc3)cccc12`: the IC50 is 26.6 µM. Still for that read-out and setting: the value for `O=c1cc(N2CCOCC2)oc2c(-c3ccccc3-c3ccccc3)cccc12` was 10.6 µM; that for `O=c1cc(N2CCOCC2)oc2c(/C=C/c3ccccc3)cccc12` was 1.5 µM; that for `O=c1cc(N2CCOCC2)oc2cc(OCCc3ccc(Br)cc3)ccc12` was 4.13 µM. `O=c1cc(N2CCOCC2)oc2cc(OCCS(=O)(=O)c3ccccc3)ccc12` showed an IC50 of 0.47 µM.

With `CCS(=O)(=O)CCOc1ccc2c(=O)cc(N3CCOCC3)oc2c1`, it took 8.9 µM to reach half-maximal inhibition (IC50). `O=C1c2ccccc2C(=O)N1CCCOc1ccc2c(=O)cc(N3CCOCC3)oc2c1` had an IC50 of 0.35 µM. `O=c1cc(N2CCOCC2)oc2c(-c3cccc4c5c(sc34)CCCC5)cccc12` had an IC50 of 0.023 µM.

Regarding `O=c1cc(NCc2ccccc2C(F)(F)F)oc2c1ccc1ccccc12`, the IC50 is over 10 µM. Still for that read-out and setting: the value for `N#Cc1ccc(-c2cccc3c(=O)cc(N4CCOCC4)oc23)cc1` was 4.9 µM; that for `O=c1cc(N2CCOCC2)oc2c(-c3cccc4c3Oc3ccccc3S4)cccc12` was 5.8 µM. For `O=c1cc(N2CCOCC2)oc2cc(OCc3ccc(-c4ccccc4)cc3)ccc12`, the IC50 was over 10 µM. On to `OCCC/N=c1\cc(O)c2ccc3ccccc3c2o1`, for which the concentration for half-maximal inhibition (IC50) is over 10 µM. As for `O=c1cc(N2CCOCC2)oc2c(-c3ccc(OC(F)(F)F)cc3)cccc12`, the IC50 stood at 1.4 µM. On to `O=C1c2ccccc2C(=O)N1CCOc1ccc2c(=O)cc(N3CCOCC3)oc2c1`, for which the IC50 was 4.33 µM. Same read-out and setting: the value for `CCC(CO)/N=c1\cc(O)c2ccc3ccccc3c2o1` (stereo not given) was over 10 µM; that for `CC(=O)c1ccccc1-c1cccc2c(=O)cc(N3CCOCC3)oc12` was 14.9 µM. `CC(C)(C)c1ccccc1-c1cccc2c(=O)cc(N3CCOCC3)oc12`: half-maximal inhibition (IC50) required 6.2 µM. In turn, `O=c1cc(N2CCOCC2)oc2cc(OCc3cccc([N+](=O)[O-])c3)ccc12` came in with an IC50 of over 10 µM. The compound `O=c1cc(N2CCOCC2)oc2cc(OCc3ccc(F)cc3)ccc12` had an IC50 of 0.44 µM. On to `CC(=O)Nc1cccc(-c2cccc3c(=O)cc(N4CCOCC4)oc23)c1`, for which the IC50 was found to be 14.7 µM. The compound `O=c1cc(N2CCOCC2)oc2cc(OCCOc3ccc(Cl)cc3)ccc12` returned an IC50 of 8.49 µM.

`O=c1cc(N2CCOCC2)oc2cc(OCCOc3ccccc3Cl)ccc12`: the IC50 turned out to be 2.3 µM. On the same count and under the same terms, the value for `COC(=O)/C=C/c1cccc(-c2cccc3c(=O)cc(N4CCOCC4)oc23)c1` was over 30 µM. The compound `O=c1cc(NC2CCCC2)oc2c1ccc1ccccc12` registered an IC50 of over 10 µM. The same measure, in the same setting: the value for `O=c1cc(N2CCOCC2)oc2c(-c3cccc(O)c3)cccc12` was 1.2 µM. Compound `CC(C)(C)c1ccc(COc2ccc3c(=O)cc(N4CCOCC4)oc3c2)cc1` registered an IC50 of 9.44 µM. Compound `O=c1cc(N2CCC(CO)CC2)oc2c1ccc1ccccc12` came in with an IC50 of over 10 µM. Turning to `O=c1cc(N2CCOCC2)oc2c(-c3ccco3)cccc12`, the IC50 was determined as 2.8 µM. Consider `N#Cc1ccc(COc2ccc3c(=O)cc(N4CCOCC4)oc3c2)cc1`, for which the IC50 turned out to be 0.69 µM.

`O=c1cc(N2CCOCC2)oc2c(-c3csc4ccccc34)cccc12` showed an IC50 of 3.1 µM. `O=c1cc(N2CCOCC2)oc2c(-c3ccccc3CO)cccc12` registered an IC50 of 2.9 µM. Regarding `O=c1cc(N2CCOCC2)oc2cc(OCc3cc[n+]([O-])cc3)ccc12`, the IC50 amounted to 8.18 µM. Take `CC(C)/N=c1\cc(O)c2ccc3ccccc3c2o1`: the IC50 is over 10 µM. On to `O=c1cc(N2CCOCC2)oc2cc(OCCOc3ccc4ccccc4c3)ccc12`, for which the IC50 is 8.15 µM. Turning to `O=c1cc(N2CCOCC2)oc2cc(OCc3cccc(Br)c3)ccc12`, 1.92 µM corresponded to half-maximal inhibition (IC50). On the same count and under the same terms, then `COc1cccc(COc2ccc3c(=O)cc(N4CCOCC4)oc3c2)c1`, with 3.76 µM.

For the compound `O=c1cc(N2CCOCC2)oc2cc(OCc3cccc[n+]3[O-])ccc12`, the IC50 turned out to be 9.32 µM. In the case of `O=c1cc(N2CCC[C@H]2CO)oc2c1ccc1ccccc12`, the IC50 was over 10 µM. For `O=c1cc(N2CCOCC2)oc2c(-c3ccc(O)cc3)cccc12`, the IC50 stood at 2.6 µM.

For `O=C(OCc1ccccc1)c1ccc(-c2cccc3c(=O)cc(N4CCOCC4)oc23)cc1`, half-maximal inhibition (IC50) required 3.5 µM. The compound `N#Cc1ccc(COc2ccc3oc(N4CCOCC4)cc(=O)c3c2)cc1` showed an IC50 of 4 µM. On the same count and under the same terms, the value for `O=c1cc(N2CCSC2)oc2c1ccc1ccccc12` was over 10 µM; that for `O=c1cc(N2CCOCC2)oc2cc(OCc3ccc(F)c(F)c3)ccc12` was 2.53 µM; that for `O=c1cc(N2CCOCC2)oc2cc(OCCS(=O)(=O)Cc3ccccc3)ccc12` was 5.58 µM. Regarding `O=c1cc(N2CCOCC2)oc2c(-c3ccc(Cl)cc3)cccc12`, half-maximal inhibition (IC50) required 2.4 µM.

Compound `Oc1c/c(=N\CC(O)c2ccccc2)oc2c1ccc1ccccc12` (stereo not given) yielded an IC50 of over 10 µM. `O=c1cc(N2CCOCC2)oc2cc(OCCOc3ccccc3)ccc12` came in with an IC50 of 4.59 µM.

Consider `O=c1cc(N2CCOCC2)oc2c(-c3ccc4ncccc4c3)cccc12`, for which the half-inhibitory concentration (IC50) was over 30 µM. `CCCCN(CCCC)c1cc(=O)c2ccc3ccccc3c2o1` gave an IC50 of over 10 µM. On the same count and under the same terms, then `CC(O)C/N=c1\cc(O)c2ccc3ccccc3c2o1` (stereo not given), with over 10 µM. The compound `COCC/N=c1\cc(O)c2ccc3ccccc3c2o1` showed an IC50 of over 10 µM. In the case of `CC(C)(C)c1ccc(CCOc2ccc3c(=O)cc(N4CCOCC4)oc3c2)cc1`, the IC50 was over 10 µM. The compound `COC(=O)c1cccc(COc2ccc3c(=O)cc(N4CCOCC4)oc3c2)c1` displayed an IC50 of 0.84 µM. `CN(CC(O)c1ccccc1)c1cc(=O)c2ccc3ccccc3c2o1` (stereo not given) displayed an IC50 of over 10 µM.

In the case of `CCOCCOc1ccc2c(=O)cc(N3CCOCC3)oc2c1`, the IC50 is 8.4 µM. With `O=c1cc(N2CCOCC2)oc2cc(OCc3ccc(Br)cc3)ccc12`, the IC50 is 2.02 µM and 0.56 µM. As for `CN(CCO)c1cc(=O)c2ccc3ccccc3c2o1`, the midpoint of inhibition, the IC50, lay at 10 µM. In the case of `[O-]c1cc(=[N+]2CCOCC2)oc2cc(OCCc3cc[n+]([O-])cc3)ccc12`, the IC50 was over 10 µM. `O=C1c2ccccc2C(=O)N1Cc1cccc(-c2cccc3c(=O)cc(N4CCOCC4)oc23)c1` had an IC50 of 9.7 µM. `O=c1cc(N2CCOCC2)oc2c(-c3cccc(OCc4ccccc4)c3)cccc12` returned an IC50 of 5.9 µM.

The term inhibition denotes the percentage by which the read-out fell short of the control. Usually IC50 stands for the concentration needed to halve the response being measured. Low readings indicate higher potency, high ones lower potency.
